# Experimental data reported in US20250059182A1, “SOS1 INHIBITORS” (Mirati Therapeutics, Inc., priority 2021, published 2025).
# Assays:
# [1] = target: T1, recombinant human SOS1 polypeptide (amino acids 560-1049) (Homo sapiens, UniProt Q07889); test: HTRF displacement assay: inhibition of labeled tracer binding to SOS1; conditions: Table A, Morrison equation for competitive binding
# T1 construct: corresponding to amino acids 560-1049, expressed in E. Coli; made in house; host or cells: E. coli
# T1 sequence (Q07889 560-1049): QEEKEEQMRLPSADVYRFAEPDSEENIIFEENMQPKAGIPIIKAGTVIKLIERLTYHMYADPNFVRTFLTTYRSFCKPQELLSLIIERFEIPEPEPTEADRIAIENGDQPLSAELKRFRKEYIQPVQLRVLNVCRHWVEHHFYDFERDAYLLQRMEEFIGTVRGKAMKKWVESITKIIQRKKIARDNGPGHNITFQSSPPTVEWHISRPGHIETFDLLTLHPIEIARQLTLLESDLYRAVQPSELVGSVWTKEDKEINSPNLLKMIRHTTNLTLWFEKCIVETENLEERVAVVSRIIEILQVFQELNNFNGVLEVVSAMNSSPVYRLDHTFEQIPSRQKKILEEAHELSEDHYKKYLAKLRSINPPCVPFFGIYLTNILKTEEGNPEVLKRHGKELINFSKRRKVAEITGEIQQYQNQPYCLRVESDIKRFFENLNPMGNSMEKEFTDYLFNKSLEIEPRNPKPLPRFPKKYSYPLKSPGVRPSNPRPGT
# [2] = system: pERK in MKN1 cells; test: pERK inhibition, In-Cell Western (LI-COR Odyssey), MKN1 cells; assay type: cell-based; conditions: Homo sapiens, MKN-1, Table B; MKN1 or H358 cells (table does not say which); 0.5-1 hour incubation; read-out: IC50 (nM), pERK inhibition
# Summary of the method: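 IC50 was fitted from % pERK inhibition, calculated as the GAPDH-normalised pERK signal of each well divided by the vehicle mean. Signal was imaged at 700 and 800 nm after fixation, methanol permeabilisation and dual antibody staining. Before fixation, MKN1 cells had received compound for about 0.5–1 h at 37 °C, top concentration 10 µM, nine 3-fold dilutions.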
Structure (SMILES),Ki [1],IC50 [2]
"CCN1CC[C@H](N(C)c2cc3c(N[C@H](C)c4cccc(C#N)c4C)nnc(C)c3cn2)C1 [Example 1-89, 3-((R)-1-((7-(((S)-1-ethylpyrrolidin-3-yl)(methyl)amino)-4-methylpyrido[3,4-d]pyridazin-1-yl)amino)ethyl)-2-methylbenzonitrile]",1.71 nM,32.6 nM
"Cc1nnc(N[C@H](C)c2cccc(C(F)(F)F)c2F)c2cc(N(C)[C@@H]3CCCN(C)C3)ncc12 [Example 1-90, N^1-((R)-1-(2-fluoro-3-(trifluoromethyl)phenyl)ethyl)-N^7,4-dimethyl-N^7-((R)-1-methylpiperidin-3-yl)pyrido[3,4-d]pyridazine-1,7-diamine]",0.453 nM,102 nM
"COCCN(C)c1cc2c(N[C@H](C)c3cccc(C#N)c3C)nnc(C)c2cn1 [Example 1-91, (R)-3-(1-((7-((2-methoxyethyl)(methyl)amino)-4-methylpyrido[3,4-d]pyridazin-1-yl)amino)ethyl)-2-methylbenzonitrile]",6.07 nM,225 nM
"Cc1nnc(N[C@H](C)c2cc(N)cc(C(F)(F)F)c2F)c2cc(N3CC(C)(O)C3)ncc12 [Example 1-93, (R)-1-(1-((1-(5-amino-2-fluoro-3-(trifluoromethyl)phenyl)ethyl)amino)-4-methylpyrido[3,4-d]pyridazin-7-yl)-3-methylazetidin-3-ol]",0.361 nM,50.5 nM
"Cc1nnc(N[C@H](C)c2cc(N)cc(C(F)(F)F)c2F)c2cc(N3CC4CC(C3)O4)ncc12 [Example 1-94, N-((R)-1-(5-amino-2-fluoro-3-(trifluoromethyl)phenyl)ethyl)-7-(6-oxa-3-azabicyclo[3.1.1]heptan-3-yl)-4-methylpyrido[3,4-d]pyridazin-1-amine]",0.264 nM,15.4 nM
"Cc1nnc(N[C@H](C)c2cc(N)cc(C(F)(F)F)c2F)c2cc(N3CC4CC(C3)O4)ccc12 [Example 1-95, N-((R)-1-(5-amino-2-fluoro-3-(trifluoromethyl)phenyl)ethyl)-7-(6-oxa-3-azabicyclo[3.1.1]heptan-3-yl)-4-methylphthalazin-1-amine]",0.31 nM,19.8 nM
"Cc1nnc(N[C@H](C)c2ccc(C#N)cc2F)c2cc(N3C[C@H]4C[C@@H]3CO4)ncc12 [Example 1-96, 4-((R)-1-((7-((1R,4R)-2-oxa-5-azabicyclo[2.2.1]heptan-5-yl)-4-methylpyrido[3,4-d]pyridazin-1-yl)amino)ethyl)-3-fluorobenzonitrile]",19.1 nM,255 nM
"Cc1nnc(N[C@H](C)c2ccc(C#N)cc2F)c2cc(N3CCN4CCOC[C@@H]4C3)ncc12 [Example 1-97, 3-fluoro-4-((R)-1-((7-((S)-hexahydropyrazino[2,1-c][1,4]oxazin-8(1H)-yl)-4-methylpyrido[3,4-d]pyridazin-1-yl)amino)ethyl)benzonitrile]",17.7 nM,358 nM
"Cc1nnc(N[C@H](C)c2cccc3c2OCC3(F)F)c2cc(N3CC4(CN(C)C4)C3)ncc12 [Example 1-99, (R)-N-(1-(3,3-difluoro-2,3-dihydrobenzofuran-7-yl)ethyl)-4-methyl-7-(6-methyl-2,6-diazaspiro[3.3]heptan-2-yl)pyrido[3,4-d]pyridazin-1-amine]",0.357 nM,19.1 nM
"Cc1nnc(N[C@H](C)c2cccc3c2OCC3(F)F)c2cc(N3CCN(C)CC3)ncc12 [Example 1-100, (R)-N-(1-(3,3-difluoro-2,3-dihydrobenzofuran-7-yl)ethyl)-4-methyl-7-(4-methylpiperazin-1-yl)pyrido[3,4-d]pyridazin-1-amine]",0.423 nM,25.1 nM
"CCN1CCN(c2cc3c(N[C@H](C)c4cccc5c4OCC5(F)F)nnc(C)c3cn2)CC1 [Example 1-101, (R)-N-(1-(3,3-difluoro-2,3-dihydrobenzofuran-7-yl)ethyl)-7-(4-ethylpiperazin-1-yl)-4-methylpyrido[3,4-d]pyridazin-1-amine]",0.326 nM,26.2 nM
"Cc1c([C@@H](C)Nc2nnc(C)c3cnc(N4CCN(C)CC4)cc23)cc(N)nc1C(F)(F)F [Example 1-102, (R)-N-(1-(6-amino-3-methyl-2-(trifluoromethyl)pyridin-4-yl)ethyl)-4-methyl-7-(4-methylpiperazin-1-yl)pyrido[3,4-d]pyridazin-1-amine]",2.18 nM,37 nM
"CCN(c1cc2c(N[C@H](C)c3cccc(C#N)c3C)nnc(C)c2cn1)[C@@H]1CCN(C)C1 [Example 1-103, 3-((R)-1-((7-(ethyl((R)-1-methylpyrrolidin-3-yl)amino)-4-methylpyrido[3,4-d]pyridazin-1-yl)amino)ethyl)-2-methylbenzonitrile]",1.1 nM,48.4 nM
"Cc1c([C@@H](C)Nc2nnc(C)c3cnc(N4CCOCC4)cc23)cc(N)nc1C(F)(F)F [Example 1-105, (R)-N-(1-(6-amino-3-methyl-2-(trifluoromethyl)pyridin-4-yl)ethyl)-4-methyl-7-morpholinopyrido[3,4-d]pyridazin-1-amine]",4.39 nM,31.1 nM
"Cc1c([C@@H](C)Nc2nnc(C)c3cnc(N4C[C@H]5C[C@@H]4CO5)cc23)cc(N)nc1C(F)(F)F [Example 1-106, N-((R)-1-(6-amino-3-methyl-2-(trifluoromethyl)pyridin-4-yl)ethyl)-7-((1R,4R)-2-oxa-5-azabicyclo[2.2.1]heptan-5-yl)-4-methylpyrido[3,4-d]pyridazin-1-amine]",7.3 nM,128 nM
"Cc1c([C@@H](C)Nc2nnc(C)c3cnc(N4CC5(COC5)C4)cc23)cc(N)nc1C(F)(F)F [Example 1-107, (R)-N-(1-(6-amino-3-methyl-2-(trifluoromethyl)pyridin-4-yl)ethyl)-4-methyl-7-(2-oxa-6-azaspiro[3.3]heptan-6-yl)pyrido[3,4-d]pyridazin-1-amine]",22.5 nM,239 nM
"Cc1nnc(N[C@H](C)c2cccc3c2OCC3(F)F)c2cc(N3CCOCC3)ncc12 [Example 1-108, (R)-N-(1-(3,3-difluoro-2,3-dihydrobenzofuran-7-yl)ethyl)-4-methyl-7-morpholinopyrido[3,4-d]pyridazin-1-amine]",2.31 nM,35.7 nM
"Cc1nnc(N[C@H](C)c2cccc(C(C)(F)F)c2F)c2cc(N3CCN(C)CC3)ncc12 [Example 1-109, (R)-N-(1-(3-(1,1-difluoroethyl)-2-fluorophenyl)ethyl)-4-methyl-7-(4-methylpiperazin-1-yl)pyrido[3,4-d]pyridazin-1-amine]",0.647 nM,41.3 nM
"Cc1c(C#N)cccc1[C@@H](C)Nc1nnc(C)c2cnc(N3CCS(=O)(=O)CC3)cc12 [Example 1-110, (R)-3-(1-((7-(1,1-dioxidothiomorpholino)-4-methylpyrido[3,4-d]pyridazin-1-yl)amino)ethyl)-2-methylbenzonitrile]",3.36 nM,240 nM
"Cc1c([C@@H](C)Nc2nnc(C)c3ccc(N4CCOCC4)cc23)cc(N)nc1C(F)(F)F [Example 1-111, (R)-N-(1-(6-amino-3-methyl-2-(trifluoromethyl)pyridin-4-yl)ethyl)-4-methyl-7-morpholinophthalazin-1-amine]",2.91 nM,57.9 nM
"Cc1c(C#N)cccc1[C@@H](C)Nc1nnc(C)c2cnc(N3CCN(C(=O)[C@H]4CCCN4C)CC3)cc12 [Example 2-1, 2-methyl-3-((R)-1-((4-methyl-7-(4-(methyl-D-prolyl)piperazin-1-yl)pyrido[3,4-d]pyridazin-1-yl)amino)ethyl)benzonitrile]",0.458 nM,551 nM
"Cc1c(C#N)cccc1[C@@H](C)Nc1nnc(C)c2cnc(N3CCN(C(=O)[C@@H]4CCCN4C)CC3)cc12 [Example 2-2, 2-methyl-3-((R)-1-((4-methyl-7-(4-(methyl-L-prolyl)piperazin-1-yl)pyrido[3,4-d]pyridazin-1-yl)amino)ethyl)benzonitrile]",0.845 nM,456 nM
"Cc1c(C#N)cccc1[C@@H](C)Nc1nnc(C)c2cnc(N3CCN(C(=O)[C@H]4CCCN4)CC3)cc12 [Example 2-3, 3-((R)-1-((7-(4-(D-prolyl)piperazin-1-yl)-4-methylpyrido[3,4-d]pyridazin-1-yl)amino)ethyl)-2-methylbenzonitrile]",0.32 nM,656 nM
"Cc1c(C#N)cccc1[C@@H](C)Nc1nnc(C)c2cnc(N3CCN(C(=O)[C@@H]4CCCN4)CC3)cc12 [Example 2-4, 3-((R)-1-((7-(4-(L-prolyl)piperazin-1-yl)-4-methylpyrido[3,4-d]pyridazin-1-yl)amino)ethyl)-2-methylbenzonitrile]",0.816 nM,933 nM
"Cc1c(C#N)cccc1[C@@H](C)Nc1nnc(C)c2cnc(N3CCN(C(=O)[C@@H]4CCN(C)C4)CC3)cc12 [Example 2-5, 2-methyl-3-((R)-1-((4-methyl-7-(4-((R)-1-methylpyrrolidine-3-carbonyl)piperazin-1-yl)pyrido[3,4-d]pyridazin-1-yl)amino)ethyl)benzonitrile]",0.743 nM,1050 nM
